Columns and labels:
[1] = target: human wild type STING (WT STING) (Homo sapiens, UniProt Q86WV6, H232R); experiment: Digitonin assay using 293T wtSTING-FL reporter cells (ISRE firefly luciferase reporter); type: cell-based; settings: 293T wtSTING-FL cells; 30 min in Digitonin buffer, then 5 hours; luciferase read-out; 8-point dose-response curve; read-out: Digitonin assay EC50 (μmol · l^−1) WT STING
Text: Two complementary oligonucleotides of the sequence […] […] […] […] […] The oligonucleotides were mixed in equal molar amounts, hybridized, and cleaved by restriction endonucleases HindIII (cat. #. R0104S, NEB, Ipswich, USA) and BglII (cat. #R0144S, NEB, Ipswich, USA). Ultimately, they were ligated into plasmid pGL4.27 (cat. #E6651, Promega, Madison, USA) linearized with the same enzymes. As result the sequence with four ISRE sites was placed upstream of the minimum promoter of firefly luciferase reporter gene.
After 5 minutes incubation at room temperature (RT), 250 μL of the mixture was added dropwise to the cells in one well.
Transfected cells were seeded onto poly-D-lysine coated six well plates at density 50,000 cells per 1 cm^2 in DMEM medium with high glucose containing 10% heat inactivated FBS, 30 μg/mL blasticidin (cat. #ant-bl-05, InvivoGen, San Diego, USA), 0.06 mg/ml Penicillin G and 0.1 mg/ml Streptomycin Sulfate (both cat. #. L0018, Biowest, Riverside, USA). The medium was replenished every 3-4 days until visible colonies of cells resistant to blasticidin were formed.
Blasticidin resistant cells stably expressing WT STING were further transfected with […] plasmid following the same procedure as described above. […] Homogeneous culture of stably double transfected cells was prepared by limiting dilution of cells in 96 well plates and wells with cells were selected that originated from a single cell.
The medium was removed next day and three fold serial dilutions of compounds in Digitonin buffer containing 50 mmol·l^−1 HEPES (cat. #H3375, Sigma Aldrich, Czech Republic) pH 7.0, 100 mmol·l^−1 KCl, 3 mmol·l^−1 MgCl2, 0.1 mmol·l^−1 DTT (cat. #D0632, Sigma Aldrich, Czech Republic), 85 mmol·l^−1 Sucrose (cat. #S7903, Sigma Aldrich, Czech Republic), 0.2% BSA (cat. #A2153, Sigma Aldrich, Czech Republic), 1 mmol·l^−1 ATP (cat. #A1852, Sigma Aldrich, Czech Republic), 0.1 mmol·l^−1 GTP (cat. #G8877, Sigma Aldrich, Czech Republic), and 10 μg/mL Digitonin A (cat. #D141, Sigma Aldrich, Czech Republic) were added to the cells. The buffer was removed after 30 minutes incubation at 37° C. with 5% CO2, the cells were washed once with 100 μl of cultivation medium, and 100 IA of medium was added to each well. The plates with cells were incubated for 5 hours at 37° C. with 5% CO2, 50 μl of the medium was removed and 30 μl of ONE-Glo™ Luciferase Assay System reagent (cat. #E6120, Promega, Madison, USA) was added to each well. Luminesce was read on Synergy H1 (Biotek, Winooski, USA).

[2] = target: T1, AQ STING (truncated human STING G230A-R293Q allelic form) (Homo sapiens, UniProt Q86WV6, G230A/H232R/R293Q); experiment: Differential Scanning Fluorimetry with AQ STING; type: binding; settings: thermal shift vs apoprotein, 150 μM CDN, 0.1 mg/ml STING protein, SYPRO Orange; for ΔTm at 150 µM: read-out: DSF ΔTm (° C.) AQ STING
T1 construct: truncated human WT STING or AQ STING (amino acid residues 140-343); 8xHis (N, cleaved yes); SUMO (N, cleaved yes); made in house; host or cells: E. coli Rosetta-gami B (DE3)
T1 sequence (Q86WV6 140-343 G230A/H232R/R293Q): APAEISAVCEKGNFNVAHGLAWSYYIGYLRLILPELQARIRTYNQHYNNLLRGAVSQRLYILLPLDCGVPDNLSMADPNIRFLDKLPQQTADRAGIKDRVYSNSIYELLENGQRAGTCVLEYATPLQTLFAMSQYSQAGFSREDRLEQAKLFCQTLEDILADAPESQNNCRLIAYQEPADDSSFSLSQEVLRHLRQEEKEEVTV
Description: (§1) Purified PCR products were cleaved with restriction enzymes BamHI (cat. #R0136S, NEB, Ipswich, USA) and NotI (cat. #R0189S, NEB, Ipswich, USA) and cloned into the pSUMO vector linearized with the identical enzymes.
(§2) DNase I (cat. #D5025, Sigma Aldrich, Czech Republic) and RNase A (cat. #R6513, Sigma Aldrich, Czech Republic) were added (final concentration […]) together with MgCl2 (final concentration 5 mmol·l^−1) to the homogenate and bacteria were lysed using French Press G-M™ High-Pressure Cell Press Homogenizer (1500 psi, 3 cycles). […] The resin was poured into a chromatography column, washed with 50 ml buffer A (50 mmol·l^−1 TrisCl (pH 8.0), 800 mmol·l^−1 NaCl, 3 mmol·l^−1β-mercaptoethanol; 10% glycerol; 20 mmol·l^−1 imidazole) and 8-His-SUMO tagged STING proteins were eluted with 15 ml buffer A containing 300 mmol·l^−1 imidazole. […] Proteins were concentrated with Amicon® Ultra-15 10 K device (cat. #UFC901008, Merck Millipore, Billerica, USA) and flash frozen in liquid N2.
(§3) Differential Scanning Fluorimetry with WT STING and AQ STING
(§4) 20 μL solutions of the reaction mixtures were pipetted in triplicates into 96 well optical reaction plates and thermal denaturation of samples were performed on real time PCR cycler (LightCycler® 480 Instrument II—Roche, Base^1, Switzerland). The first derivative of the thermal denaturation curves was performed to calculate denaturing temperatures of STING-CDN complexes and STING apoproteins. The thermal shift for each CDN was calculated by subtracting the average denaturing temperature of STING apoprotein from the average denaturing temperature of STING CDN complex.

[3] = target: T2, WT STING (truncated human WT STING protein) (Homo sapiens, UniProt Q86WV6, H232R); experiment: Differential Scanning Fluorimetry with WT STING; type: binding; settings: thermal shift vs apoprotein, 150 μM CDN, 0.1 mg/ml STING protein, SYPRO Orange; for ΔTm at 150 µM: read-out: DSF ΔTm (° C.) WT STING
T2 construct: truncated human WT STING or AQ STING (amino acid residues 140-343); 8xHis (N, cleaved yes); SUMO (N, cleaved yes); made in house; host or cells: E. coli Rosetta-gami B (DE3)
T2 sequence (Q86WV6 140-343 H232R): as the sequence (Q86WV6 140-343 G230A/H232R/R293Q) above, with A91G, Q154R counted along it
Description: as §1, §2, §3, §4

human wild type STING (WT STING), sequence (Q86WV6 whole entry H232R): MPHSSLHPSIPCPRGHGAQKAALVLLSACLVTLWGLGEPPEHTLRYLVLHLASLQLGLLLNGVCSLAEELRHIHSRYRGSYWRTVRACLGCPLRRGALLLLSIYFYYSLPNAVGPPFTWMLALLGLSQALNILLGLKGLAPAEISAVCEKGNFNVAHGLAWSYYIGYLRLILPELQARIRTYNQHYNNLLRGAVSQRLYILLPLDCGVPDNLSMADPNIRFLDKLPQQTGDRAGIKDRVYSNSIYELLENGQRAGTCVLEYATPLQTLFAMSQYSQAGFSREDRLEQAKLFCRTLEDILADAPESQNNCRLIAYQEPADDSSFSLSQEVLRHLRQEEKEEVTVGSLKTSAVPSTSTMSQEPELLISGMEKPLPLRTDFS

| EC50 [1] [nM] | ΔTm at 150 µM [2] [°C] | ΔTm at 150 µM [3] [°C] | DSF ΔTm (° C.) AQ STING [2] [°C] | DSF ΔTm (° C.) WT STING [3] [°C] | Compound |
| --- | --- | --- | --- | --- | --- |
| 14 | 23.2 | 16.7 |  |  | Nc1nc2c(ncn2[C@@H]2O[C@@H]3COP(=O)(O)CO[C@H]4[C@@H](O)[C@H](n5cnc6c(N)ncnc65)O[C@@H]4COP(=O)(O)O[C@@H]2[C@@H]3O)c(=O)[nH]1 [Example 5, (1R,6R,8R,9R,10S,16R,18R,19R)-18-(2-amino-6-oxo-6,9-dihydro-1H-purin-9-yl)-8-(6-amino-9H-purin-9-yl)-3,9,13,19-tetrahydroxy-2,4,7,11,14,17-hexaoxa-3λ^5,13λ^5-diphosphatricyclo[14.2.1.0^6,^10]nonadecane-3,13-dione] |
| 20 | 27.3 | 21.7 |  |  | Nc1nc2c(ncn2[C@@H]2O[C@@H]3COP(=O)(O)CO[C@H]4[C@@H](F)[C@H](n5cnc6c(N)ncnc65)O[C@@H]4COP(=O)(O)O[C@@H]2[C@@H]3F)c(=O)[nH]1 [Example 17, (1S,6R,8R,9R,10R,16R,18R,19R)-18-(2-amino-6-oxo-6,9-dihydro-1H-purin-9-yl)-8-(6-amino-9H-purin-9-yl)-9,19-difluoro-3,13-dihydroxy-2,4,7,11,14,17-hexaoxa-3λ^5,13λ^5-diphosphatricyclo[14.2.1.0^6,^10]nonadecane-3,13-dione] |
| 2 | 25.1 | 18.2 |  |  | Nc1nc2c(ncn2[C@@H]2O[C@@H]3COP(=O)(O)CO[C@H]4[C@@H](O)[C@H](n5cnc6c(N)ncnc65)O[C@@H]4COP(=O)(O)O[C@@H]2[C@@H]3F)c(=O)[nH]1 [Example 19, (1S,6R,8R,9R,10S,16R,18R,19R)-18-(2-amino-6-oxo-6,9-dihydro-1H-purin-9-yl)-8-(6-amino-9H-purin-9-yl)-19-fluoro-3,9,13-trihydroxy-2,4,7,11,14,17-hexaoxa-3λ^5,13λ^5-diphosphatricyclo[14.2.1.0^6,^10]nonadecane-3,13-dione] |
| 5800 |  |  | 7.7 | 2.6 | Nc1nc2c(ncn2[C@@H]2O[C@@H]3COP(=O)(O)O[C@H]4[C@@H](O)[C@H](n5cnc6c(=O)[nH]c(N)nc65)O[C@@H]4COP(=O)(O)O[C@H]3[C@H]2O)c(=O)[nH]1 [3′3′-c-di-GMP, reference compound] |
| 20 | 16 | 7.3 |  |  | Nc1nc2c(ncn2[C@@H]2O[C@@H]3COP(=O)(O)O[C@H]4[C@@H](F)[C@H](n5cnc6c(N)ncnc65)O[C@@H]4COP(=O)(O)CO[C@@H]2[C@@H]3O)c(=O)[nH]1 [Example 4, (1R,6R,7R,8R,10R,16R,17R,19R)-17-(2-amino-6-oxo-6,9-dihydro-1H-purin-9-yl)-8-(6-amino-9H-purin-9-yl)-7-fluoro-4,13,19-trihydroxy-3,5,9,12,15,18-hexaoxa-4λ^5,13λ^5-diphosphatricyclo[14.2.1.0^6,^10]nonadecane-4,13-dione] |
| 5900 | 3.4 | 0.2 |  |  | Nc1ncnc2c1ncn2[C@@H]1O[C@@H]2COP(=O)(O)CO[C@@H]3[C@H](O)[C@@H](COP(=O)(O)O[C@H]2[C@H]1O)O[C@H]3n1cnc2c(N)ncnc21 [Example 23, (1R,6S,7R,8R,10R,16R,17R,19R)-8,17-bis(6-amino-9H-purin-9-yl)-4,7,13,19-tetrahydroxy-3,5,9,12,15,18-hexaoxa-4λ^5,13λ^5-diphosphatricyclo[14.2.1.0^6,^10]nonadecane-4,13-dione] |
| 10 | 19.2 | 14.4 |  |  | Nc1nc2c(ncn2[C@@H]2O[C@@H]3COP(=O)(O)CO[C@H]4C[C@H](n5cnc6c(N)ncnc65)O[C@@H]4COP(=O)(O)O[C@@H]2[C@@H]3O)c(=O)[nH]1 [Example 15, (1R,6R,8R,10S,16R,18R,19R)-18-(2-amino-6-oxo-6,9-dihydro-1H-purin-9-yl)-8-(6-amino-9H-purin-9-yl)-3,13,19-trihydroxy-2,4,7,11,14,17-hexaoxa-3λ^5,13λ^5-diphosphatricyclo[14.2.1.0^6,^10]nonadecane-3,13-dione] |
| 580 | 7.5 | 2.1 |  |  | Nc1nc(N)c2ncn([C@@H]3O[C@@H]4COP(=O)(O)O[C@@H]5[C@H](O)[C@@H](COP(=O)(O)CO[C@H]4[C@H]3F)O[C@H]5n3cnc4c(N)ncnc43)c2n1 [Example 26, (1R,6R,8R,9R,10R,16R,18R,19R)-18-(6-amino-9H-purin-9-yl)-8-(2,6-diamino-9H-purin-9-yl)-9-fluoro-3,13,19-trihydroxy-2,4,7,11,14,17-hexaoxa-3λ^5,13λ^5-diphosphatricyclo[14.2.1.0^6,^10]nonadecane-3,13-dione] |
| 53 | 17.5 | 10.6 |  |  | Nc1nc(N)c2ncn([C@@H]3O[C@@H]4COP(=O)(O)CO[C@H]5[C@@H](O)[C@H](n6cnc7c(N)ncnc76)O[C@@H]5COP(=O)(O)O[C@@H]3[C@@H]4F)c2n1 [Example 25, (1S,6R,8R,9R,10S,16R,18R,19R)-8-(6-amino-9H-purin-9-yl)-18-(2,6-diamino-9H-purin-9-yl)-19-fluoro-3,9,13-trihydroxy-2,4,7,11,14,17-hexaoxa-3λ^5,13λ^5-diphosphatricyclo[14.2.1.0^6,^10]nonadecane-3,13-dione] |
| 30 |  |  | 19.4 | 11.5 | Nc1nc2c(ncn2[C@@H]2O[C@@H]3COP(=O)(O)O[C@@H]4[C@H](O)[C@@H](COP(=O)(O)O[C@@H]2[C@@H]3O)O[C@H]4n2cnc3c(N)ncnc32)c(=O)[nH]1 [2′2′-cGAMP, reference compound] |
| 400 | 9.4 | 3 |  |  | Nc1ncnc2c1ncn2[C@@H]1O[C@@H]2COP(=O)(O)O[C@@H]3[C@H](O)[C@@H](COP(=O)(O)CO[C@H]2[C@H]1O)O[C@H]3n1cnc2c(N)ncnc21 [Example 8, (1R,6R,8R,9R,10S,16R,18R,19R)-8,18-bis(6-amino-9H-purin-9-yl)-3,9,13,19-tetrahydroxy-2,4,7,11,14,17-hexaoxa-3λ^5,13λ^5-diphosphatricyclo[14.2.1.0^6,^10]nonadecane-3,13-dione] |
